The target in one test is human TLR9 (Homo sapiens (Human), UniProt Q9NR96). In words: TLR9 inhibition reporter assay (HEK-Blue SEAP).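 Further: SEAP driven by an IFN-β minimal promoter with NF-κB and AP-1 sites, read after 22 h, compounds dosed 0.05 nM–50 µM, inhibition scaled between agonist plus DMSO and reference-inhibitor wells.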 As to conditions: read-out: TLR9 IC50; HEK-Blue cells overexpressing human TLR9, SEAP reporter, ODN2006 5 nM. Background: Reporter assays use an easily measured gene product as a stand-in for the process of interest.
The next test concerns the target human TLR7 (Homo sapiens (Human), UniProt Q9NYK1). Nature of the test: TLR7 inhibition reporter assay (HEK-Blue SEAP). It is filed as cell-based. As to conditions: HEK-Blue cells overexpressing human TLR7, SEAP reporter, gardiquimod 7.5 μM.
The next test addresses human TLR8 (Homo sapiens (Human), UniProt Q9NR97). In words: TLR8 inhibition reporter assay (HEK-Blue SEAP).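 Further: SEAP driven by IFN-β minimal promoter carrying NF-κB and AP-1 sites, compounds dosed 0.05 nM to 50 µM for 22 h, inhibition scaled between agonist-plus-DMSO and reference-inhibitor wells.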 To be noted: read-out: TLR8 IC50; HEK-Blue cells overexpressing human TLR8, SEAP reporter, R848 15.9 μM.

Chain of human TLR9 (Q9NR96 26-1032): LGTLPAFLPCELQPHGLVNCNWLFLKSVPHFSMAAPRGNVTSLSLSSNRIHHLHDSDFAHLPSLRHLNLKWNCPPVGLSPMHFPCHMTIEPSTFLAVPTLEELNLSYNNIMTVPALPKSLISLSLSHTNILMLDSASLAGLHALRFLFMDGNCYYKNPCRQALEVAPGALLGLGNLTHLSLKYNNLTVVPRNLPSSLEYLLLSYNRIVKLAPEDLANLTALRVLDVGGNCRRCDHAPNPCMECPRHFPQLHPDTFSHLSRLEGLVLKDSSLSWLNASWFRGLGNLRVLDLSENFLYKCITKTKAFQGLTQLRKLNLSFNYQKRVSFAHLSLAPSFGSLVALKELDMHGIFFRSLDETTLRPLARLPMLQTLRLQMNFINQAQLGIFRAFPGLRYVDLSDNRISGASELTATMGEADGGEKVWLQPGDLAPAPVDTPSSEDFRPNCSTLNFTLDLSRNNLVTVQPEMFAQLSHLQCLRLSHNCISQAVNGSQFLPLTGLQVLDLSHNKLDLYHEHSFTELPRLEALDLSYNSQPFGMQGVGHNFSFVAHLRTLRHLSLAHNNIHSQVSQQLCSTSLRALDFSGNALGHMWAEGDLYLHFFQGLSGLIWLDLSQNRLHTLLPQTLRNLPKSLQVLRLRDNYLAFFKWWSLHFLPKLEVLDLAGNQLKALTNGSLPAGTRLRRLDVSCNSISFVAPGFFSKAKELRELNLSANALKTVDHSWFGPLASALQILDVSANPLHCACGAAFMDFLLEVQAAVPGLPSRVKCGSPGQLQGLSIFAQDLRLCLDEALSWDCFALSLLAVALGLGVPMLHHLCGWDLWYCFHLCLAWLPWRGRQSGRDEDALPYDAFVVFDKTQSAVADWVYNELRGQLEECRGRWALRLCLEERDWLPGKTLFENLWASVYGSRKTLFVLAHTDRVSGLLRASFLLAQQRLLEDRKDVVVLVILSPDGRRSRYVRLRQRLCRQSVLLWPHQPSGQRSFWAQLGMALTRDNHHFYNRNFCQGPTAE
Chain of human TLR7 (Q9NYK1 27-1049): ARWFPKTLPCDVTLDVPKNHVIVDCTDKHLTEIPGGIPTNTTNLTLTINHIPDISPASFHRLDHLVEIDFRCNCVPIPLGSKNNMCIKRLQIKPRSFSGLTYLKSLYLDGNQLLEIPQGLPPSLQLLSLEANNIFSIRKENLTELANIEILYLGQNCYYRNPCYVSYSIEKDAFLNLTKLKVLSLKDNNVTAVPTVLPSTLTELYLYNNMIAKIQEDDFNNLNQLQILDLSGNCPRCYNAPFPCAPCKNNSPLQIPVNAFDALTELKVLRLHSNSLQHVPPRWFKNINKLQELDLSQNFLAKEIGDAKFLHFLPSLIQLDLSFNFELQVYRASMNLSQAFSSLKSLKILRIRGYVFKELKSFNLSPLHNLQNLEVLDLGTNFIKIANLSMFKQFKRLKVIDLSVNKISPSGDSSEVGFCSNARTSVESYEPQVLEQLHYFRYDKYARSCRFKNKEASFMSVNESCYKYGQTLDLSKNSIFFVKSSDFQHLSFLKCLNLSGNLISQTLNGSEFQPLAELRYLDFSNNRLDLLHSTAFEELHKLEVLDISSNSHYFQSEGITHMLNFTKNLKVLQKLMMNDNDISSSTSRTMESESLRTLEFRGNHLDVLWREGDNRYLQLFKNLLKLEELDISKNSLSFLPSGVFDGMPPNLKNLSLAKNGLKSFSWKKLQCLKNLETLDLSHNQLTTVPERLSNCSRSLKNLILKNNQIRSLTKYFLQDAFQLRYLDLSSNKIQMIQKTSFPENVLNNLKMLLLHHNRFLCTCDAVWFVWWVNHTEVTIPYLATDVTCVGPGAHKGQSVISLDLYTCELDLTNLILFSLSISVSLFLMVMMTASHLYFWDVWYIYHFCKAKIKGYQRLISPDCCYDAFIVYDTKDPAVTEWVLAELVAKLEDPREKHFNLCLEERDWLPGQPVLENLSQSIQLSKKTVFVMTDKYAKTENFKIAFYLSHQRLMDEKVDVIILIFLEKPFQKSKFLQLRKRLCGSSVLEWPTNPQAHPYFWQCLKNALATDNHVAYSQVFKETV
Chain of human TLR8 (Q9NR97 27-1041): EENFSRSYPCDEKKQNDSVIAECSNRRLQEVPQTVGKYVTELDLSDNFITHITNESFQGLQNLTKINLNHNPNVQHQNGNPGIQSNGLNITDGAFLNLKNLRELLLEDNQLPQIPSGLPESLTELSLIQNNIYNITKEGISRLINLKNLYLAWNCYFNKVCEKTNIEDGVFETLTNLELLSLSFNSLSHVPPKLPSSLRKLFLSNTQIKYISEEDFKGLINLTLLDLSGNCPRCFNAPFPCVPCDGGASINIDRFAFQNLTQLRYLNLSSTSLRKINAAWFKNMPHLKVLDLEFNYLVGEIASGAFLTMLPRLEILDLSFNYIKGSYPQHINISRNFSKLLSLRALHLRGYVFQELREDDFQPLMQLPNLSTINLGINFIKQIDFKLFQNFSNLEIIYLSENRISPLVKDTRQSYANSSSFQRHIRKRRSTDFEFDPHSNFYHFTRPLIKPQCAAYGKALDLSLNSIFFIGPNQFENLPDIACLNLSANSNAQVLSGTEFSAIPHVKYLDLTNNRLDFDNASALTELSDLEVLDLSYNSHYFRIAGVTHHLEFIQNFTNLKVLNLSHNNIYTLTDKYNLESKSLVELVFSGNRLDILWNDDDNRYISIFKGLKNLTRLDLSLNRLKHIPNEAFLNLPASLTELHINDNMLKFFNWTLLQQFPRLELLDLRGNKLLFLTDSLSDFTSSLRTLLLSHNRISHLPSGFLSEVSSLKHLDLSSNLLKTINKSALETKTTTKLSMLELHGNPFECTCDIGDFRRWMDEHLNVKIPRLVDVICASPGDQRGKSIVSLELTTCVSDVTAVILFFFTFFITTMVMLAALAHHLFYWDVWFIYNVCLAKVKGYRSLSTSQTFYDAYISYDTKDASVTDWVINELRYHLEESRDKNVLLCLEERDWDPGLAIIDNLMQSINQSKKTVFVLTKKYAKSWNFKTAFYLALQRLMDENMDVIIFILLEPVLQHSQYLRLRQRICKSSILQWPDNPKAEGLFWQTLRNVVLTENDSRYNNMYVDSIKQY

By IC50 is commonly meant the concentration at which inhibition is half-maximal. Regarding `Cc1c(-c2[nH]c3ccc(C4CCN(CC#N)CC4)nc3c2C(C)C)cn2ncnc2c1C` [Example 557], the IC50 on human TLR9 turned out to be 440 nM; against human TLR7, 0.66 nM; at human TLR8, 1.2 nM.

Regarding `COc1cc(-c2[nH]c3ccc(C4CCN(CC(N)=O)CC4)nc3c2C(C)C)cn2ncnc12` [Example 558], the half-maximal inhibitory concentration (IC50) at human TLR9 was 3430 nM; against human TLR7, 1.2 nM; on human TLR8 it was 5.6 nM.

Consider `Cc1c(-c2[nH]c3ccc(C4CCN(CC(N)=O)CC4)nc3c2C(C)C)cn2ncnc2c1C` [Example 560], for which the IC50 was determined as 3820 nM at human TLR9, 1.2 nM on human TLR7 and 1 nM on human TLR8.

As for `Cc1cc(-c2[nH]c3ccc(C4CCN(C5CCN(C)C5=O)CC4)nc3c2C(C)C)cn2ncnc12` (stereo not drawn) [Example 561], the half-inhibitory concentration (IC50) on human TLR9 amounted to 5650 nM; on human TLR7, 0.64 nM; on human TLR8, 3 nM.

Turning to `COc1cc(-c2[nH]c3ccc(C4CCN(C5CCN(C)C5=O)CC4)nc3c2C(C)C)cn2ncnc12` (stereo not drawn) [Example 562], the values for the IC50 on human TLR9, at human TLR7 and on human TLR8 were 6480 nM, 1.9 nM and 1.1 nM, respectively.

Turning to `Cc1c(-c2[nH]c3ccc(C4CCN(C5CCN(C)C5=O)CC4)nc3c2C(C)C)cn2ncnc2c1C` (stereo not drawn) [Example 563], the IC50 on human TLR9 was found to be 4260 nM; on human TLR7, 0.83 nM; on human TLR8, 2.4 nM.

As for `CNC(=O)CN1CCC(c2ccc3[nH]c(-c4cn(C)c(=O)c(Cl)c4C)c(C(C)C)c3n2)CC1` [Example 565], the 50% inhibitory concentration (IC50) at human TLR9 came out at 3220 nM; against human TLR7, 8.8 nM; on human TLR8, 6.9 nM.

Consider `Cc1c(-c2[nH]c3ccc(C4CCN(C5COC5)CC4)nc3c2C(C)C)cn(C)c(=O)c1Cl` [Example 566], for which the IC50 amounted to 19000 nM on human TLR9, 24 nM against human TLR7 and 18 nM on human TLR8.

With `Cc1c(-c2[nH]c3ccc(C4CCN(CC(=O)N(C)C)CC4)nc3c2C(C)C)cn(C)c(=O)c1Cl` [Example 567], the IC50 on human TLR9 stood at 2320 nM; on human TLR7, 18 nM; on human TLR8, 18 nM.

Turning to `CCCN1CCC(c2ccc3[nH]c(-c4cn(C)c(=O)c(Cl)c4C)c(C(C)C)c3n2)CC1` [Example 568], the IC50 at human TLR9 stood at 2080 nM; at human TLR7, 6 nM; at human TLR8 it was 3.8 nM.

For the compound `Cc1c(-c2[nH]c3ccc(C4CCN(CC(C)C)CC4)nc3c2C(C)C)cn(C)c(=O)c1Cl` [Example 569], the values for the concentration for half-maximal inhibition (IC50) at human TLR9, against human TLR7 and at human TLR8 were 2180 nM, 11 nM and 3 nM, respectively.

In the case of `Cc1c(-c2[nH]c3ccc(C4CCN(C(=O)CN(C)C)CC4)nc3c2C(C)C)cn(C)c(=O)c1Cl` [Example 570], the half-maximal inhibitory concentration (IC50) on human TLR9 was 143 nM; at human TLR7, 10 nM; at human TLR8, 57 nM.

Consider `Cc1cc2[nH]c(-c3cc(C)c4ncnn4c3)c(C(C)C)c2nc1C1CCN(CC(C)(C)O)CC1` [Example 572], for which the IC50 at human TLR9 is 1200 nM; at human TLR7, 4.6 nM; at human TLR8 it was 25 nM.

As to `COc1cc(-c2[nH]c3cc(F)c(C4CCN(CCS(C)(=O)=O)CC4)nc3c2C(C)C)cn2ncnc12` [Example 573], the half-maximal inhibitory concentration (IC50) at human TLR9 stood at 3230 nM; on human TLR7 it was 0.99 nM; on human TLR8, 9.1 nM.

`COc1cc(-c2[nH]c3cc(F)c(C4CCN(C5COC5)CC4)nc3c2C(C)C)cn2ncnc12` [Example 574]: the results for the IC50 at human TLR9, at human TLR7 and at human TLR8 were 11900 nM, 3 nM and 47 nM, respectively.

As to `Cc1cc2[nH]c(-c3cc(C)c4ncnn4c3)c(C(C)C)c2nc1C1CCN(C2CCOCC2)CC1` [Example 575], the IC50 turned out to be 1350 nM on human TLR9, 0.44 nM at human TLR7 and 121 nM on human TLR8.

`COc1cc(-c2[nH]c3cc(F)c(C4CCN(C(=O)CN(C)C)CC4)nc3c2C(C)C)cn2ncnc12` [Example 577]: the figures for the IC50 at human TLR9, on human TLR7 and at human TLR8 were 1880 nM, 0.69 nM and 7.4 nM, respectively.

`Cc1cc2[nH]c(-c3cc(C)c4ncnn4c3)c(C(C)C)c2nc1C1CCN(C2COC2)CC1` [Example 578]: the IC50 on human TLR9 was determined as 4190 nM; at human TLR7, 0.53 nM; on human TLR8, 287 nM.

With `COc1cc(-c2[nH]c3cc(C)c(C4CCN(C5COC5)CC4)nc3c2C(C)C)cn2ncnc12` [Example 579], the figures for the IC50 on human TLR9, on human TLR7 and at human TLR8 were 1840 nM, 0.39 nM and 79 nM, respectively.

For the compound `Cc1cc(-c2[nH]c3cc(F)c(C4CCN(CC(=O)N(C)C)CC4)nc3c2C(C)C)cn2ncnc12` [Example 580], the 50% inhibitory concentration (IC50) on human TLR9 came to 1790 nM; against human TLR7, 0.41 nM; at human TLR8 it was 8.7 nM.

Turning to `Cc1cc2[nH]c(-c3cc(C)c4ncnn4c3)c(C(C)C)c2nc1C1CCN(CC(=O)N(C)C)CC1` [Example 581], the results for the half-inhibitory concentration (IC50) at human TLR9, against human TLR7 and at human TLR8 were 4920 nM, 0.3 nM and 79 nM, respectively.

Take `Cc1cc(-c2[nH]c3cc(F)c(C4CCN(CCS(C)(=O)=O)CC4)nc3c2C(C)C)cn2ncnc12` [Example 582]: the 50% inhibitory concentration (IC50) at human TLR9 turned out to be 7460 nM; against human TLR7, 0.99 nM; on human TLR8 it was 12 nM.

For `COc1cc(-c2[nH]c3cc(F)c(C4CCN(CC(=O)N(C)C)CC4)nc3c2C(C)C)cn2ncnc12` [Example 583], the half-inhibitory concentration (IC50) was determined as 1550 nM at human TLR9, 0.32 nM against human TLR7 and 5.1 nM at human TLR8.

Regarding `COc1cc(-c2[nH]c3cc(C)c(C4CCN(CC(=O)N(C)C)CC4)nc3c2C(C)C)cn2ncnc12` [Example 584], the 50% inhibitory concentration (IC50) at human TLR9 came out at 2010 nM; against human TLR7, 0.24 nM; at human TLR8, 29 nM.

`Cc1cc(-c2[nH]c3cc(F)c(C4CCN(C(=O)CN(C)C)CC4)nc3c2C(C)C)cn2ncnc12` [Example 585]: the values for the IC50 at human TLR9, against human TLR7 and at human TLR8 were 1840 nM, 0.46 nM and 8.6 nM, respectively.

With `Cc1cc2[nH]c(-c3cc(C)c4ncnn4c3)c(C(C)C)c2nc1C1CCN(C(=O)CN(C)C)CC1` [Example 586], the IC50 at human TLR9 stood at 2900 nM; at human TLR7 it was 0.75 nM; at human TLR8 it was 98 nM.

`COc1cc(-c2[nH]c3cc(C)c(C4CCN(CC(C)(C)O)CC4)nc3c2C(C)C)cn2ncnc12` [Example 587]: the results for the half-inhibitory concentration (IC50) on human TLR9, against human TLR7 and on human TLR8 were 1410 nM, 0.31 nM and 27 nM, respectively.

As for `Cc1cc(-c2[nH]c3cc(F)c(C4CCN(C5COC5)CC4)nc3c2C(C)C)cn2ncnc12` [Example 588], the IC50 at human TLR9 stood at 16100 nM; on human TLR7, 2.3 nM; at human TLR8 it was 42 nM.

With `COc1cc(-c2[nH]c3cc(C)c(C4CCN(C5CCOCC5)CC4)nc3c2C(C)C)cn2ncnc12` [Example 589], the 50% inhibitory concentration (IC50) was 1060 nM at human TLR9, 0.25 nM at human TLR7 and 62 nM at human TLR8.

Turning to `COc1cc(-c2[nH]c3ccc(OCC4CCN(C)CC4)nc3c2C(C)C)cn2ncnc12` [Example 590, 6-(3-isopropyl-5-((1-methylpiperidin-4-yl)methoxy)-1H-pyrrolo[3,2-b]pyridin-2-yl)-8-methoxy-[1,2,4]triazolo[1,5-a]pyridine], the 50% inhibitory concentration (IC50) at human TLR9 came out at 3550 nM; against human TLR7 it was 3 nM; on human TLR8, 4.7 nM.

Regarding `COc1cc(-c2[nH]c3ccc(OCC4CCN(C5CCOCC5)CC4)nc3c2C(C)C)cn2ncnc12` [Example 591, 6-(3-isopropyl-5-((1-(tetrahydro-2H-pyran-4-yl)piperidin-4-yl)methoxy)-1H-pyrrolo[3,2-b]pyridin-2-yl)-8-methoxy-[1,2,4]triazolo[1,5-a]pyridine], the IC50 on human TLR9 came out at 2850 nM; on human TLR7, 4.8 nM; at human TLR8 it was 7.7 nM.

As to `COc1cc(-c2[nH]c3ccc(OCC4CN(C(C)C)C4)nc3c2C(C)C)cn2ncnc12` [Example 592, 6-(3-isopropyl-5-((1-isopropylazetidin-3-yl)methoxy)-1H-pyrrolo[3,2-b]pyridin-2-yl)-8-methoxy-[1,2,4]triazolo[1,5-a]pyridine], the concentration for half-maximal inhibition (IC50) amounted to 2240 nM on human TLR9, 2.9 nM against human TLR7 and 7.4 nM at human TLR8.

As to `CCCN1CCC(Oc2ccc3[nH]c(-c4cc(OC)c5ncnn5c4)c(C(C)C)c3n2)CC1` [Example 593, 6-(3-isopropyl-5-((1-propylpiperidin-4-yl)oxy)-1H-pyrrolo[3,2-b]pyridin-2-yl)-8-methoxy-[1,2,4]triazolo[1,5-a]pyridine], the IC50 at human TLR9 worked out at 974 nM; on human TLR7 it was 1.4 nM; on human TLR8 it was 2.6 nM.

Turning to `Cc1cc(-c2[nH]c3ccc(OC4CCN(C)CC4)nc3c2C(C)C)cn2ncnc12` [Example 594, 6-(3-isopropyl-5-((1-methylpiperidin-4-yl)oxy)-1H-pyrrolo[3,2-b]pyridin-2-yl)-8-methyl-[1,2,4]triazolo[1,5-a]pyridine], the figures for the IC50 on human TLR9, at human TLR7 and on human TLR8 were 7910 nM, 3.9 nM and 16 nM, respectively.

Regarding `COc1cc(-c2[nH]c3ccc(OC4CN(C5CCOCC5)C4)nc3c2C(C)C)cn2ncnc12` [Example 595, 6-(3-isopropyl-5-((1-(tetrahydro-2H-pyran-4-yl)azetidin-3-yl)oxy)-1H-pyrrolo[3,2-b]pyridin-2-yl)-8-methoxy-[1,2,4]triazolo[1,5-a]pyridine], the values for the concentration for half-maximal inhibition (IC50) at human TLR9, on human TLR7 and at human TLR8 were 10900 nM, 122 nM and above 3120 nM, respectively.

As to `COc1cc(-c2[nH]c3ccc(OC4CN(C)C4)nc3c2C(C)C)cn2ncnc12` [Example 596, 6-(3-isopropyl-5-((1-methylazetidin-3-yl)oxy)-1H-pyrrolo[3,2-b]pyridin-2-yl)-8-methoxy-[1,2,4]triazolo[1,5-a]pyridine], the figures for the IC50 on human TLR9, against human TLR7 and on human TLR8 were 3200 nM, 13 nM and 67 nM, respectively.

The values are drawn from US10544143B2, “4-azaindole compounds” (BRISTOL-MYERS SQUIBB COMPANY, priority 2017, dated 2020).
